Test results as given in patent US11142525B2 (Pfizer Inc., priority 2018, dated 2021).
Like-named read-outs stand apart in the source and are kept apart here.

Columns and labels:
[1] = target: human full-length recombinant HPK1 (Homo sapiens (Human), UniProt Q92918); test: HPK1 biochemical enzyme assay, microfluidic mobility shift assay (MSA); settings: read-out: HPK1 Enzyme Assay_Ki
[2] = system: phospho-SLP-76 (Ser376) in Jurkat cells; test: Phospho-SLP-76 (Ser376) Homogeneous Time Resolved Fluorescence (HTRF) assay in Jurkat cells; assay type: cell-based; settings: Homo sapiens, read-out: SLP76 Assay_IC50
Method in brief: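 Jurkat cells pre-treated 30 min with compounds (10 μM to 0.1 nM, 11-point, 0.1% DMSO), then stimulated with 200 μg/mL F(ab)2-complexed anti-CD3 (UCHT1) for 15 min at 37 °C. Lysate phospho-SLP-76 detected by HTRF after overnight antibody incubation; IC50 from four-parameter fit.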

[3] = mobility shift assay, 75 μM ATP, Morrison equation, tight-binding competitive inhibition
[4] = 30 min pre-treatment, anti-CD3 stimulation 15 min, HTRF
[5] = Phospho-SLP-76 (Ser376) HTRF, anti-CD3 stimulation

Sequence of human full-length recombinant HPK1 (Q92918 whole entry): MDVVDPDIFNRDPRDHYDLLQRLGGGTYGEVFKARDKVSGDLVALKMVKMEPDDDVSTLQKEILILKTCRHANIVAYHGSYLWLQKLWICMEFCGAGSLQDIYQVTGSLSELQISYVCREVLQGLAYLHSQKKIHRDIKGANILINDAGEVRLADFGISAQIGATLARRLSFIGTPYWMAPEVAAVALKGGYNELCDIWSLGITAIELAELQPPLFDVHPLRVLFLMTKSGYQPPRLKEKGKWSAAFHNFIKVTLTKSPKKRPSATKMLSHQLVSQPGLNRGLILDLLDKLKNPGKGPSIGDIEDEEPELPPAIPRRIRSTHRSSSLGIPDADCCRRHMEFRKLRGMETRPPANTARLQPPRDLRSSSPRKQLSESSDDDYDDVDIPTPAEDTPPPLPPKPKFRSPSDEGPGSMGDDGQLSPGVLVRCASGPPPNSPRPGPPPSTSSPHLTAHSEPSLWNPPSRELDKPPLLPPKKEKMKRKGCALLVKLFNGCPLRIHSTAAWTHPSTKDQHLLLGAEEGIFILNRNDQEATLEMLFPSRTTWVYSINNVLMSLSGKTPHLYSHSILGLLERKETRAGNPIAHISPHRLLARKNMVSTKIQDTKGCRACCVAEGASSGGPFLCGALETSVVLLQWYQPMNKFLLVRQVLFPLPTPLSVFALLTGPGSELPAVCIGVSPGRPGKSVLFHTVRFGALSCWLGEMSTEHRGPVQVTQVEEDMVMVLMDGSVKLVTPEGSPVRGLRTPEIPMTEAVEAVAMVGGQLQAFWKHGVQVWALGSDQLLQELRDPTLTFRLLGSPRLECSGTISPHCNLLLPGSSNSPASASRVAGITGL

Row | Ki [1, 3] | IC50 [2, 4] | Ki ([1]; HPK1 mobility shift assay) | IC50 [2, 5] | Structure (SMILES)
1 | 1.92 nM | 561 nM |  |  | C[C@@H]1C[C@@H](C)N1c1cc2c(c(CN)n1)CN(c1cccc(N3C(=O)OC[C@@H]3C)n1)C2=O [Example 43, 4-(aminomethyl)-6-[(2R,4R)-2,4-dimethylazetidin-1-yl]-2-{6-[(4S)-4-methyl-2-oxo-1,3-oxazolidin-3-yl]pyridin-2-yl}-2,3-dihydro-1H-pyrrolo[3,4-c]pyridin-1-one]
2 |  |  | 0.95 nM | 179 nM | Cc1nnc(-c2cccc(N3Cc4c(cc(N5[C@H](C)CC[C@H]5C)nc4CN)C3=O)n2)n1C(C)C [Example 169]
3 |  |  | < 0.09 nM | 21 nM | CCn1cnnc1-c1cccc(N2Cc3c(cc(N4CCC[C@H]4C)nc3CNC)C2=O)n1 [Example 115, 2-[6-(4-ethyl-4H-1,2,4-triazol-3-yl)pyridin-2-yl]-4-[(methylamino)methyl]-6-[(2R)-2-methylpyrrolidin-1-yl]-2,3-dihydro-1H-pyrrolo[3,4-c]pyridin-1-one]
4 |  |  | 0.16 nM | 184 nM | CCCn1cnnc1-c1cccc(N2Cc3c(cc(N(CC)CC)nc3CNC)C2=O)n1 [Example 80, 6-(diethylamino)-4-[(methylamino)methyl]-2-[6-(4-propyl-4H-1,2,4-triazol-3-yl)pyridin-2-yl]-2,3-dihydro-1H-pyrrolo[3,4-c]pyridin-1-one]
5 |  |  | 0.64 nM | 583 nM | CCNc1cc2c(c(CNC)n1)CN(c1cccc(-c3nncn3CC)n1)C2=O [Example 76, 6-(ethylamino)-2-[6-(4-ethyl-4H-1,2,4-triazol-3-yl)pyridin-2-yl]-4-[(methylamino)methyl]-2,3-dihydro-1H-pyrrolo[3,4-c]pyridin-1-one]
6 |  |  | 0.2 nM | 67 nM | C[C@H]1CCCN1c1cc2c(c(CN)n1)CN(c1cccc(N3C(=O)OC[C@@H]3C)n1)C2=O [Example 132, 4-(aminomethyl)-2-{6-[(4S)-4-methyl-2-oxo-1,3-oxazolidin-3-yl]pyridin-2-yl}-6-[(2S)-2-methylpyrrolidin-1-yl]-2,3-dihydro-1H-pyrrolo[3,4-c]pyridin-1-one]
7 | 0.9 nM | 439 nM |  |  | C[C@H]1COC(=O)N1c1cccc(N2Cc3c(cc(C4CC4)nc3CN)C2=O)n1 [Example 26, 4-(aminomethyl)-6-cyclopropyl-2-{6-[(4S)-4-methyl-2-oxo-1,3-oxazolidin-3-yl]pyridin-2-yl}-2,3-dihydro-1H-pyrrolo[3,4-c]pyridin-1-one]
8 |  |  | 0.21 nM | 64 nM | CCCn1cnnc1-c1cccc(N2Cc3c(cc(N4[C@H](C)CC[C@H]4C)nc3CNC)C2=O)n1 [Example 105, 6-[(2R,5R)-2,5-dimethylpyrrolidin-1-yl]-4-[(methylamino)methyl]-2-[6-(4-propyl-4H-1,2,4-triazol-3-yl)pyridin-2-yl]-2,3-dihydro-1H-pyrrolo[3,4-c]pyridin-1-one]
9 |  |  | 0.7 nM | 391 nM | CCN(c1cc2c(c(CN)n1)CN(c1cccc(-c3nnc(C)n3CC)n1)C2=O)C(C)C [Example 167]
10 | 0.62 nM | 245 nM |  |  | CNCc1nc(N(C)C)cc2c1CN(c1cccc(-c3nncn3CC3CC3)n1)C2=O [Example 21, 2-{6-[4-(cyclopropylmethyl)-4H-1,2,4-triazol-3-yl]pyridin-2-yl}-6-(dimethylamino)-4-[(methylamino)methyl]-2,3-dihydro-1H-pyrrolo[3,4-c]pyridin-1-one]
11 |  |  | 1.44 nM | 299 nM | CNCc1nc(C2CC2)cc2c1CN(c1cccc(N3C(=O)OC[C@@H]3CF)n1)C2=O [Example 87, 6-cyclopropyl-2-{6-[(4R)-4-(fluoromethyl)-2-oxo-1,3-oxazolidin-3-yl]pyridin-2-yl}-4-[(methylamino)methyl]-2,3-dihydro-1H-pyrrolo[3,4-c]pyridin-1-one]
12 |  |  | 0.09 nM | > 10000 nM | CCC(CC)n1cnnc1-c1cccc(N2Cc3c(cc(N4CCC[C@@H]4C)nc3CNC)C2=O)n1 [Example 138, 4-[(methylamino)methyl]-6-[(2S)-2-methylpyrrolidin-1-yl]-2-{6-[4-(pentan-3-yl)-4H-1,2,4-triazol-3-yl]pyridin-2-yl}-2,3-dihydro-1H-pyrrolo[3,4-c]pyridin-1-one]
